Results: ChEMBL document CHEMBL3638868, “Nitrogenous-ring acylguanidine derivative” (2014)

Biological target: 5-hydroxytryptamine receptor 5A (Homo sapiens, UniProt P47898)
Test: Binding Inhibition Assay: A solution of the compound to be tested and 100 μM 5-CT (5-carboxamidetriptamine) in DMSO was added to a 96-well plate at 2 μl/well, suspended in an incubation buffer, and a membrane from HEK293 cells for forced expressions of a human 5-HT5A receptor prepared at 200 ug/ml was added at 100 μl/well. After incubation at room temperature for 15 minutes, a [3H]5-CT solution (2 nM [3H]5-CT, incubation buffer) was added thereto at 100 μl/well.Separately, 100 μl of the solution was distributed into a liquid scintillation vial, and 2 ml of Aquasol II (registered trademark) was added thereto, followed by stirring. Then, radioactivity was measured by a liquid scintillation counter. It was incubated at 37C. for 60 minutes. The reaction mixture was sucked into 96-well GF/C filter plate that had been pre-treated with 0.2% polyethyleneimine, and washed six times with an ice-cooled, 50 mM Tris (pH 7.5) buffer. The GF/C filter plate was dried.
Assay type: cell membranes

Sequence of 5-hydroxytryptamine receptor 5A (P47898 whole entry): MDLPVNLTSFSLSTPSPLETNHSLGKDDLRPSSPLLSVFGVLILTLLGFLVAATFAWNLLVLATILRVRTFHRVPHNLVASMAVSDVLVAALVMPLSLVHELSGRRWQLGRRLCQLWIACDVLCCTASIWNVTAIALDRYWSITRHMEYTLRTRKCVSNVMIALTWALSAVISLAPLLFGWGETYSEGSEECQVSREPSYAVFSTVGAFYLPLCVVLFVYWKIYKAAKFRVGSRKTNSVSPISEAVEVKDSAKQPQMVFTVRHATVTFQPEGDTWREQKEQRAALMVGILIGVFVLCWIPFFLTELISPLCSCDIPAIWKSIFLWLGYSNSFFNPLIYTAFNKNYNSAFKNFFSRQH

NC(N)=NC(=O)c1ccc2c(C(F)F)cnc(-c3c(F)cccc3F)c2c1
Ki: 4.6 nM
